# Measured values published in US12558405B2, “Pharmaceutical composition using endogenous cells for preventing or treating musculoskeletal disorders” (SEOUL NATIONAL UNIVERSITY R&DB FOUNDATION, priority 2019, dated 2026).
# B1: G-CSF: positive control of chemotaxis, 100 ng/mL (protein, UniProt P09919 31-207, looked up)
# Granulocyte …: TPLGPASSLPQSFLLKCLEQVRKIQGDGAALQEKLVSECATYKLCHPEELVLLGHSLGIPWAPLSSCPSQALQLAGCLSQLHSGLFLYQGLLQALEGISPELGPTLDTLQLDVADFATTIWQQMEELGMAPALQPTQGAMPAFASAFQRRAGGVLVASHLQSFLEVSYRVLRHLAQP
# Experiments:
# [1] = test system: bone marrow stem cells; assay: Chemotaxis of stem cells, Boyden chamber assay; assay type: cell-based; details: 24 hours; control group (antibiotic) = 100.00; composition 10% of medium volume, positive controls 100 ng/mL
# Protocol: 1×10^4 bone marrow stem cells were seeded onto an upper insert of a transwell and cultured for 24 hours in LG DMEM containing an antibiotic (HyClone, Thermo Fisher Scientific Inc., Waltham, MA, USA). […] LG DMEM not containing FBS was used as a negative control group, and G-CSF 100 ng/mL, SDF-1α 100 ng/mL and IL-1β 100 ng/mL were compared as positive control groups of chemotaxis. In order to count the cells that migrated from the insert to the bottom, the cells remaining on the insert was removed 24 hours later and only the cells at the bottom were left. After fixing with 4% paraformaldehyde and staining with crystal violet, the cells were observed under a microscope. For quantification of the cells that migrated to the bottom, OD540 was measured after dissolving the crystal violet with acetic acid. All experiments were repeated 3 times.
# [2] = test system: bone marrow stem cells; assay: Chemotaxis of stem cells, agarose chemotaxis assay; assay type: cell-based; details: 72 hours; control group (antibiotic) = 100.00; composition 50% of medium volume, positive controls 100 ng/mL
# Protocol: First, after preparing 0.8% agarose gel on a 6-well plate, three holes were perforated in each well with intervals of 5 mm using a 5-mm skin biopsy punch. 1×10^4 bone marrow stem cells were dispensed into LG DMEM containing 10% FBS and an antibiotic at the center. After waiting for 5 hours until the cells were attached, the medium was replaced with LG DMEM containing the antibiotic only. […] In addition, G-CSF 100 ng/mL, SDF-1α 100 ng/mL and IL-1β 100 ng/mL were treated for comparison as positive control groups of chemotaxis. 72 hours later, the cells were fixed with 4% paraformaldehyde, stained with DAPI and observed with a fluorescence microscope. The cells that migrated to the left and right sides were imaged with the fluorescence microscope. The number of cells that migrated 100 μm or longer from the end of each hole was counted. All experiments were repeated 3 times.
Molecule,Number of migrated cells [1],Number of migrated cells [2]
"SDF-1α: positive control of chemotaxis, 100 ng/mL",365.28 ± 280.55,466.68 ± 348.04
"IL-1β: positive control of chemotaxis, 100 ng/mL",358.85 ± 271.58,314.13 ± 220.72
B1,415.01 ± 338.54,393.76 ± 280.52
